Results published in US20100113517A1, “METHOD FOR THE TREATMENT OF FABRY DISEASE USING PHARMACOLOGICAL CHAPERONES” (AMICUS THERAPEUTICS, INC., priority 2007, published 2010).
Residue numbers refer to the chain shown, from its start. Where “and” joins values, the source holds several entries; their conditions need not be identical. Identical values can stand only once. Like-named read-outs stand apart in the source and are kept apart here.

Experiments:
[1] = Phase I ascending single oral dose study, safety and tolerability; type: in vivo, healthy volunteers (human); conditions: healthy male subjects, single doses 25 mg through 675 mg
Protocol: Study Design and Duration. […] Dose escalation to the next dose level (i.e., next group) proceeded following review of safety and tolerability of the previous group(s). Subjects were housed in the treatment facility from 14 hours prior to dosing until 24 hours after dosing. Meals were controlled by schedule and subjects remained abulatory for 4 hours post drug administration.
Safety and Tolerability Assessments.
Statistical Analysis. Safety data including laboratory evaluations, physical exams, adverse events, ECG monitoring and vital signs assessments were summarized by treatment group and point of time of collection. Descriptive statistics (arithmetic mean, standard deviation, median, minimum and maximum) were calculated for quantitative safety data as well as for the difference to baseline. Frequency counts were compiled for classification of qualitative safety data. In addition, a shift table describing out of normal range shifts was provided for clinical laboratory results. A normal-abnormal shift table was also be presented for physical exam results and ECGs.
Concomitant medications and medical history were listed by treatment.

[2] = Phase Ib twice daily oral dose study, pharmacokinetics; type: in vivo, healthy volunteers (human); conditions: for half-life: read-out: t½ (converted)
Protocol: Study Design and Duration. […] Subjects were housed in the treatment facility from 14 hours prior to dosing until 24 hours after dosing. Meals were controlled by schedule and subjects remained abulatory for 4 hours post drug administration
Pharmacokinetic Sampling. Blood samples (10 mL each) were collected in blood collection tubes containing EDTA before dosing and at the following times thereafter: 0.25, 0.5, 0.75, 1, 1.5, 2, 3, 4, 5, 6, 7, 8, 9, 10, 11 and 12 hours. Blood samples were cooled in an ice bath and centrifuged under refrigeration as soon as possible. Plasma samples were divided into two aliquots and stored at […] pending assay. At the end of the study, all samples were transferred to MDS Pharma Services Analytical Laboratories (Lincoln) for analysis.
Pharmacokinetic parameters were summarised by treatment group using descriptive statistics (arithmetic means, standard deviations, coefficients of variation, sample size, minimum, maximum and median).

[3] = biological target: T1, α-Gal A (Homo sapiens, UniProt P06280); assay: Phase Ib WBC α-Gal A enzymatic activity; type: in vivo, healthy volunteers (human)
T1 construct: α-Gal A activity was calculated in white blood cells (WBC) before dosing began; endogenous in cells; host or cells: white blood cells of healthy human volunteers
T1 sequence (P06280 32-429): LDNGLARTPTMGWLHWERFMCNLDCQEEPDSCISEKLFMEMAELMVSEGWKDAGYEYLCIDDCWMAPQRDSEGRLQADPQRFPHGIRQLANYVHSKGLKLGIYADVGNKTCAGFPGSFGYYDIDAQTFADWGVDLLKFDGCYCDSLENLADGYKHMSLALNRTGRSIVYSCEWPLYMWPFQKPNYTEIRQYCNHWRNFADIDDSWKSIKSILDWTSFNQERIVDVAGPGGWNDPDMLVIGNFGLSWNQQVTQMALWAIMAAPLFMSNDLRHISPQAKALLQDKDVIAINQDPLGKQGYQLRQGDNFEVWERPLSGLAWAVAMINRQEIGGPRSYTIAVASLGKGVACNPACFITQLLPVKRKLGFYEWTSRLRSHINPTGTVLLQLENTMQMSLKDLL
Protocol: WBC α-GAL A Enzymatic Activity Sampling. Blood samples (10 mL each) were collected in blood collection tubes containing EDTA and WBC extracted before dosing and at the following times thereafter: 100 hours, 150 hours, and 336 hours. Samples were treated as described above, and WBC α-Gal A enzymatic activity levels were determined as described in Desnick, R. J. (ed) Enzyme therapy in genetic diseases. Vol 2. Alan R Liss, New York, pp 17-32. Statistical Analysis. Safety data including laboratory evaluations, physical exams, adverse events, ECG monitoring and vital signs assessments were summarized by treatment group and point of time of collection. Descriptive statistics (arithmetic mean, standard deviation, median, minimum and maximum) were calculated for quantitative safety data as well as for the difference to baseline. Frequency counts were compiled for classification of qualitative safety data. In addition, a shift table describing out of normal range shifts was provided for clinical laboratory results. A normal-abnormal shift table was also presented for physical exam results and ECGs.

[4] = test system: α-Gal A; assay: Plasma concentration at which enzyme activity enhancement is seen (clinical and preclinical studies); type: in vivo; conditions: clinical studies and preclinical studies in mice
[5] = test system: mutant α-Gal A (R301Q or Q279E); conditions: lymphoblasts from Fabry patients with R301Q or Q279E mutations; cited from earlier work
[6] = biological target: T2, human mutant α-Gal A (R301Q) (Homo sapiens, UniProt P06280, R301Q); conditions: neutral pH; cited from earlier work
T2 construct: Tissue lysates were prepared by homogenizing about 50 mg tissue in assay buffer; from tissue; host or cells: heart, kidney, skin, liver and spleen of R301Q Tg/KO mice (human transgene, mouse α-Gal A knocked out)
T2 sequence (P06280 32-429 R301Q): T1 sequence (P06280 32-429) with R270Q

[7] = biological target: T3, mutant (R301Q) α-Gal A (Homo sapiens, UniProt P06280, R301Q); conditions: oral administration; cited from earlier work
T3 construct: host or cells: major organs of transgenic mice overexpressing R301Q α-Gal A
T3 sequence (P06280 32-429 R301Q): T1 sequence (P06280 32-429) with R270Q

[8] = human, plasma, oral, 50 mg, 50 mg bid, Day 1
[9] = human, plasma, oral, 50 mg, 50 mg bid, Day 7
[10] = human, plasma, oral, 150 mg, 150 mg bid, Day 1
[11] = human, plasma, oral, 150 mg, 150 mg bid, Day 7

With `OCC1NCC(O)C(O)C1O` (stereo not shown) [DGJ, 1-deoxygalactonojirimycin] the safety and tolerability [1] was “safe and well tolerated”, the “12 h cumulative renal excretion” value ([2]; 50 mg bid, Day 1) was 16% and 16 ± 6% and the “12 h cumulative renal excretion” value ([2]; 50 mg bid, Day 7) was 48% and 48 ± 7%. For the same molecule, the Cmin ([2]; 50 mg bid, Day 7) was 0.4 ± 0.03 µM, the “12 h cumulative renal excretion” value ([2]; 150 mg bid, Day 1) was 42% and 42 ± 7% and the “12 h cumulative renal excretion” value ([2]; 150 mg bid, Day 7) was 60% and 60 ± 5%. For the same molecule, the Cmin ([2]; 150 mg bid, Day 7) was 1.2 ± 0.1 µM, the “time of peak concentrations, on average” value ([2]; all dose levels (50 and 150 mg b.i.d.)) was “approximately 3 hours” and the “increase of Cmax with dose” value ([2]; doses increased from 50 mg to 150 mg) was “dose-proportional manner”. For the same molecule, the concentration at 7 day ([2]; human, plasma, oral, 50 mg b.i.d., Day 7, read-out: Cmin) was 0.4 µM, the Cmax [2, 8] was 2.3 ± 0.3 µM and the Tmax [2, 8] was 2.9 ± 0.4 h. The Cmax [2, 9] was 3.9 ± 0.5 µM, the Tmax [2, 9] was 2.5 ± 0.4 h and the Cmax [2, 10] was 11.3 ± 1.5 µM. The Tmax [2, 10] was 3.1 ± 0.4 h, the Cmax [2, 11] was 10.8 ± 1.4 µM and the Tmax [2, 11] was 2.9 ± 0.4 h. For the same molecule, the half-life ([2]; human, plasma, oral, 50 mg bid, Day 1) was 2.5 h, the half-life ([2]; human, plasma, oral, 150 mg bid, Day 1) was 2.4 h and the “inhibition of WBC α-Gal A enzymatic activity” value ([3]; 50 mg b.i.d. or 150 mg b.i.d.) was “did not inhibit”. The “WBC α-Gal A enzymatic activity” value ([3]; 50 mg b.i.d., 100 hours) was 120 % pre-dose levels, the “WBC α-Gal A enzymatic activity” value ([3]; 50 mg b.i.d., 150 hours) was 130 % pre-dose levels and the “WBC α-Gal A enzymatic activity” value ([3]; 50 mg b.i.d., 336 hours) was 145 % pre-dose levels. For the same molecule, the “WBC α-Gal A enzymatic activity” value ([3]; 150 mg b.i.d., 100 hours) was 150 % pre-dose levels, the “WBC α-Gal A enzymatic activity” value ([3]; 150 mg b.i.d., 150 hours) was 185 % pre-dose levels and the “WBC α-Gal A enzymatic activity” value ([3]; 150 mg b.i.d., 336 hours) was 185 % pre-dose levels. The “plasma concentration at which the pharmacological effect (enzyme activity enhancement) is seen” value [4] was “approximately 0.4 μM”, the “enhancement of mutant enzyme activity” value [5] was no less than 45% and the “in vitro stability of mutant α-Gal A” value [6] was “effectively increased”. For the same molecule, the “enzyme activity in major organs” value [7] was “substantially elevated”.
